Measured values published in ChEMBL document CHEMBL4715932, “Positional Isomers of Biphenyl Antimicrobial Peptidomimetic Amphiphiles” (ACS Med Chem Lett, 2021).
Values after ≈ are worked out from the molar mass of the structure shown.

Legend:
[1] = test system: Candida albicans; assay: Antifungal activity against Candida albicans ATCC 90028 assessed as growth inhibition incubated for 36 hrs; assay type: functional; conditions: 28A ATCC 90028
[2] = test system: Cryptococcus neoformans; assay: Antifungal activity against Cryptococcus neoformans H99 ATCC 208821 assessed as growth inhibition incubated for 36 hrs; assay type: functional; conditions: var. grubii H99 ATCC 208821
[3] = test system: Staphylococcus aureus; assay: Antibacterial activity against Staphylococcus aureus ATCC 29213 assessed as inhibition of growth visually by CLSI method; assay type: functional
[4] = test system: Staphylococcus aureus; assay: Antibacterial activity against methicillin-resistant Staphylococcus aureus NCTC 10442 assessed as inhibition of growth visually by CLSI method; assay type: functional
[5] = test system: Staphylococcus aureus; assay: Antibacterial activity against vancomycin intermediate susceptibility Staphylococcus aureus Mu50 assessed as inhibition of growth visually by CLSI method; assay type: functional
[6] = test system: Enterococcus faecalis; assay: Antibacterial activity against Enterococcus faecalis ATCC 29212 assessed as inhibition of growth visually by CLSI method; assay type: functional
[7] = test system: Enterococcus faecalis; assay: Antibacterial activity against vancomycin-resistant Enterococcus faecalis ATCC 51299 assessed as inhibition of growth visually by CLSI method; assay type: functional
[8] = test system: Streptococcus pneumoniae; assay: Antibacterial activity against Streptococcus pneumoniae ATCC 49619 assessed as inhibition of growth visually by CLSI method; assay type: functional
[9] = test system: Escherichia coli; assay: Antibacterial activity against Escherichia coli ATCC 10418 assessed as inhibition of growth visually by CLSI method; assay type: functional
[10] = test system: Clostridioides difficile; assay: Antibacterial activity against Clostridioides difficile ATCC 700057 assessed as inhibition of growth visually preincubated for 2 to 4 hrs measured after 48 hrs by CLSI method; assay type: functional; conditions: time hrs <=52
[11] = test system: Clostridioides difficile; assay: Antibacterial activity against Clostridioides difficile NSW 132 (RT027) assessed as inhibition of growth visually preincubated for 2 to 4 hrs measured after 48 hrs by CLSI method; assay type: functional; conditions: time hrs <=52
[12] = test system: Staphylococcus aureus; assay: Antimicrobial activity against methicillin resistant Staphylococcus aureus ATCC 43300 assessed as growth inhibition incubated for 18 hrs; assay type: functional
[13] = test system: Pseudomonas aeruginosa; assay: Antimicrobial activity against Pseudomonas aeruginosa ATCC 27853 assessed as growth inhibition incubated for 18 hrs; assay type: functional
[14] = test system: Klebsiella pneumoniae; assay: Antimicrobial activity against multidrug-resistant Klebsiella pneumoniae ATCC 700603 assessed as growth inhibition incubated for 18 hrs; assay type: functional
[15] = test system: Acinetobacter baumannii; assay: Antimicrobial activity against Acinetobacter baumannii ATCC 19606 assessed as growth inhibition incubated for 18 hrs; assay type: functional
[16] = test system: Escherichia coli; assay: Antimicrobial activity against Escherichia coli ATCC 25922 assessed as growth inhibition incubated for 18 hrs; assay type: functional
[17] = Cytotoxicity against human HEK-293 cells incubated for 23 hrs by CO-ADD method; assay type: cell-based, HEK293
[18] = Hemolytic activity in human RBC assessed as hemolysis incubated for 1 hr by CO-ADD method; assay type: ADME, cell-based, Erythrocyte; conditions: red blood cells (erythrocytes)
[19] = Hemolytic activity in sheep RBC assessed as hemolysis at 5 microg/ml incubated for 2 hrs by CO-ADD method; assay type: ADME, cell-based, Ovis aries, Erythrocyte; conditions: red blood cells (erythrocytes), at 5 µg/mL, read-out: Activity
[20] = Hemolytic activity in sheep RBC assessed as hemolysis at 50 microg/ml incubated for 2 hrs; assay type: ADME, cell-based, Ovis aries, Erythrocyte; conditions: red blood cells (erythrocytes), at 50 µg/mL, read-out: Activity
[21] = Cytotoxicity against human HEK-293 cells assessed as maximal inhibition at <= 32 ug/ml incubated for 23 hrs by CO-ADD method; assay type: cell-based, HEK293; conditions: dose <=32 µg/ml, read-out: Imax
[22] = Hemolytic activity in human RBC assessed as maximal hemolysis at <= 32 ug/ml incubated for 1 hr by CO-ADD method; assay type: cell-based, Erythrocyte; conditions: red blood cells (erythrocytes), dose <=32 µg/ml, read-out: Activity

| SMILES | MIC80 [1] | MIC80 [2] | MIC [3] | MIC [4] | MIC [5] | MIC [6] | MIC [7] | MIC [8] | MIC [9] | MIC [10] | MIC [11] | MIC80 [12] | MIC80 [13] | MIC80 [14] | MIC80 [15] | MIC80 [16] | CC50 at 23 h [17] | HC50 at 1 h [18] | hemolysis at 2 h, 5 microg/ml [19] | hemolysis at 2 h, 50 microg/ml [20] | also measured |
| --- | --- | --- | --- | --- | --- | --- | --- | --- | --- | --- | --- | --- | --- | --- | --- | --- | --- | --- | --- | --- | --- |
| C[C@@H]1[C@H](O)[C@@H](C)/C=C/C=C/C=C/C=C/C=C/C=C/C=C/[C@H](O[C@@H]2O[C@H](C)[C@@H](O)[C@H](N)[C@@H]2O)C[C@@H]2O[C@](O)(C[C@@H](O)C[C@@H](O)[C@H](O)CC[C@@H](O)C[C@@H](O)CC(=O)O[C@H]1C)C[C@H](O)[C@H]2C(=O)O [AMPHOTERICIN B] | 1.56 µg/mL (≈ 1.69 µM) | 1.56 µg/mL (≈ 1.69 µM) | – | – | – | – | – | – | – | – | – | – | – | – | – | – | – | – | – | – | – |
| CC(C)CCOc1cccc(-c2ccc(OCc3cn(C[C@@H](CCCCN)NC(=O)[C@@H](CCCNC(=N)N)n4cc(CC5CCCCC5)nn4)nn3)cc2)c1.Cl.Cl | 16 µg/mL | > 32 µg/mL | 4 µg/mL | 4 µg/mL | 4 µg/mL | 4 µg/mL | 16 µg/mL | 4 µg/mL | 16 µg/mL | 32 µg/mL | 16 µg/mL | ≤ 0.25 µg/mL | 32 µg/mL | > 32 µg/mL | 32 µg/mL | 32 µg/mL | > 32 µg/mL | > 32 µg/mL | 2.1% | 40.8% | Emax at 23 h [21]: 43%; hemolysis at 1 h [22]: 88% |
| CC(C)CCOc1cccc(-c2ccccc2OCc2cn(C[C@@H](CCCCN)NC(=O)[C@@H](CCCNC(=N)N)n3cc(CC4CCCCC4)nn3)nn2)c1.Cl.Cl | 32 µg/mL | > 32 µg/mL | 2 µg/mL | 2 µg/mL | 2 µg/mL | 2 µg/mL | 8 µg/mL | 1 µg/mL | 2 µg/mL | 16 µg/mL | 16 µg/mL | ≤ 0.25 µg/mL | 8 µg/mL | > 32 µg/mL | 4 µg/mL | 8 µg/mL | > 32 µg/mL | > 32 µg/mL | 2.6% | 72.1% | Emax at 23 h [21]: 28%; hemolysis at 1 h [22]: 38% |
| CC(C)CCOc1ccccc1-c1ccc(OCc2cn(C[C@@H](CCCCN)NC(=O)[C@@H](CCCNC(=N)N)n3cc(CC4CCCCC4)nn3)nn2)cc1.Cl.Cl | 16 µg/mL | > 32 µg/mL | 2 µg/mL | 4 µg/mL | 4 µg/mL | 4 µg/mL | 16 µg/mL | 1 µg/mL | 8 µg/mL | 16 µg/mL | 8 µg/mL | ≤ 0.25 µg/mL | 8 µg/mL | 32 µg/mL | 4 µg/mL | 8 µg/mL | > 32 µg/mL | > 32 µg/mL | 2% | 66.4% | Emax at 23 h [21]: 40%; hemolysis at 1 h [22]: 82% |
| CN[C@H](CC(C)C)C(=O)N[C@H]1C(=O)N[C@@H](CC(N)=O)C(=O)N[C@H]2C(=O)N[C@H]3C(=O)N[C@H](C(=O)N[C@H](C(=O)O)c4cc(O)cc(O)c4-c4cc3ccc4O)[C@H](O)c3ccc(c(Cl)c3)Oc3cc2cc(c3O[C@@H]2O[C@H](CO)[C@@H](O)[C@H](O)[C@H]2O[C@H]2C[C@](C)(N)[C@H](O)[C@H](C)O2)Oc2ccc(cc2Cl)[C@H]1O [VANCOMYCIN] | – | – | – | – | 8 µg/mL (≈ 5.52 µM) | 2 µg/mL (≈ 1.38 µM) | > 8 µg/mL | – | > 8 µg/mL | 1 µg/mL (≈ 0.69 µM) | 0.5 µg/mL (≈ 0.345 µM) | 1 µg/mL (≈ 0.69 µM) | – | – | – | – | – | – | – | – | – |
| CC/C(=C(\c1ccccc1)c1ccc(OCCN(C)C)cc1)c1ccccc1 [TAMOXIFEN] | – | – | – | – | – | – | – | – | – | – | – | – | – | – | – | – | 9 µg/mL (≈ 24.2 µM) | – | – | – | – |
| CCCCCCCCCCCCCCCC1OC2C3CC(C2O1)C(C(=O)NCCNC(=N)N)C3C(=O)NCCNC(=N)N.Cl.Cl (stereo not given) | – | – | – | – | – | – | – | – | – | – | – | – | – | – | – | – | > 50 µg/mL | – | – | – | MIC [12]: 1 µg/mL |
| CC(C)CCOc1ccccc1-c1ccccc1OCc1cn(C[C@@H](CCCCN)NC(=O)[C@@H](CCCNC(=N)N)n2cc(CC3CCCCC3)nn2)nn1.Cl.Cl | 32 µg/mL | > 32 µg/mL | 2 µg/mL | 2 µg/mL | 4 µg/mL | 4 µg/mL | 8 µg/mL | 1 µg/mL | 4 µg/mL | 16 µg/mL | 8 µg/mL | ≤ 0.25 µg/mL | 16 µg/mL | 32 µg/mL | 16 µg/mL | 8 µg/mL | > 32 µg/mL | > 32 µg/mL | 2.1% | 66.6% | Emax at 23 h [21]: 14%; hemolysis at 1 h [22]: 56% |
